According to ChEMBL document CHEMBL5137008, “Recent advances of antitumor shikonin/alkannin derivatives: A comprehensive overview focusing on structural classification, synthetic approaches, and mechanisms of action” (Eur J Med Chem, 2022):

How the values were obtained:
[1] = Cytotoxicity against human L02 incubated for 24 hrs by MTT assay; assay type: toxicity, cell-based; details: L02 cells
[2] = Cytotoxicity against human L02 cells assessed as inhibition of cell growth incubated for 24 hrs by MTT assay; assay type: toxicity, cell-based
[3] = Cytotoxicity against human L02 cells assessed as inhibition of cell growth incubated for 24 hrs in presence of foetal bovine serum by MTT assay; assay type: toxicity, cell-based
[4] = test system: B16-F10; assay: Anticancer activity against mouse B16-F10 cells assessed as inhibition of cell proliferation incubated for 48 hrs by MTT assay; assay type: functional, cell-based; details: B16-F10, 48 h
[5] = test system: L02; assay: Antiproliferative activity against human L02 cells assessed as inhibition of cell proliferation incubated for 20 hrs by MTT assay; assay type: functional, cell-based; details: L02, 20 h
[6] = test system: HepG2; assay: Antiproliferative activity against human HepG2 cells assessed as reduction in cell viability incubated for 24 hrs by MTT assay; assay type: functional, cell-based; details: HepG2, 24 h
[7] = test system: A549; assay: Antiproliferative activity against human A549 cells assessed as inhibition of cell proliferation incubated for 20 hrs by MTT assay; assay type: functional, cell-based; details: A549, 20 h
[8] = test system: MDA-MB-231; assay: Antiproliferative activity against human MDA-MB-231 cells assessed as inhibition of cell proliferation incubated for 24 hrs by CCK-8 assay; assay type: functional, cell-based; details: MDA-MB-231, 24 h
[9] = test system: HeLa; assay: Antiproliferative activity against human HeLa cells assessed as inhibition of cell growth incubated for 24 hrs by MTT assay; assay type: functional, cell-based
[10] = test system: A549; assay: Antiproliferative activity against human A549 cells assessed as inhibition of cell growth incubated for 24 hrs by MTT assay; assay type: functional, cell-based; details: A549, 24 h
[11] = test system: BT-474; assay: Antiproliferative activity against human BT-474 cells assessed as inhibition of cell growth incubated for 24 hrs in presence of foetal bovine serum by MTT assay; assay type: functional, cell-based; details: BT-474, 24 h
[12] = test system: HeLa; assay: Antiproliferative activity against human HeLa cells assessed as inhibition of cell proliferation incubated for 20 hrs by MTT assay; assay type: functional, cell-based
[13] = test system: HeLa; assay: Antiproliferative activity against human HeLa cells assessed as reduction in cell viability incubated for 24 hrs by MTT assay; assay type: functional, cell-based
[14] = Cytotoxicity against human L02 cells assessed as reduction in cell viability incubated for 24 hrs by MTT assay; assay type: toxicity, cell-based
[15] = test system: HeLa; assay: Antiproliferative activity against human HeLa cells assessed as inhibition of cell proliferation incubated for 24 hrs by CCK-8 assay; assay type: functional, cell-based
[16] = test system: A549; assay: Antiproliferative activity against human A549 cells assessed as inhibition of cell growth incubated for 24 hrs in presence of foetal bovine serum by MTT assay; assay type: functional, cell-based; details: A549, 24 h
[17] = test system: MCF7; assay: Antiproliferative activity against human MCF7 cells assessed as inhibition of cell proliferation incubated for 24 hrs by MTT assay; assay type: functional, cell-based; details: MCF7, 24 h
[18] = test system: B16-F10; assay: Antiproliferative activity against mouse B16-F10 cells incubated for 24 hrs by MTT assay; assay type: functional, cell-based; details: B16-F10, 24 h
[19] = test system: MDA-MB-468; assay: Antiproliferative activity against human MDA-MB-468 cells assessed as inhibition of cell growth incubated for 24 hrs in presence of foetal bovine serum by MTT assay; assay type: functional, cell-based; details: MDA-MB-468, 24 h
[20] = Anticancer activity against human A875 cells assessed as inhibition of cell growth incubated for 72 hrs by MTT assay; assay type: functional, cell-based; details: A875, 72 h
[21] = test system: A549; assay: Antiproliferative activity against human A549 cells assessed as inhibition of cell proliferation incubated for 24 hrs by MTT assay; assay type: functional, cell-based; details: A549, 24 h
[22] = test system: SW872; assay: Anticancer activity against human SW872 cells assessed as inhibition of cell growth incubated for 72 hrs by MTT assay; assay type: functional, cell-based; details: SW872, 72 h
[23] = test system: A549; assay: Anticancer activity against human A549 cells assessed as inhibition of cell proliferation incubated for 48 hrs by MTT assay; assay type: functional, cell-based; details: A549, 48 h
[24] = test system: A549; assay: Antiproliferative activity against human A549 cells assessed as reduction in cell viability incubated for 24 hrs by MTT assay; assay type: functional, cell-based; details: A549, 24 h
[25] = test system: HeLa; assay: cells; details: Homo sapiens, 24 h
[26] = test system: MDA-MB-436; assay: Antiproliferative activity against human MDA-MB-436 cells assessed as inhibition of cell growth incubated for 24 hrs in presence of foetal bovine serum by MTT assay; assay type: functional, cell-based; details: MDA-MB-436, 24 h
[27] = test system: SK-BR-3; assay: Antiproliferative activity against human SK-BR-3 cells assessed as inhibition of cell growth incubated for 24 hrs in presence of foetal bovine serum by MTT assay; assay type: functional, cell-based; details: SK-BR-3, 24 h
[28] = test system: MCF7; assay: Anticancer activity against human MCF7 cells incubated for 72 hrs by MTT assay; assay type: functional, cell-based; details: MCF7, 72 h
[29] = test system: HepG2; assay: Anticancer activity against human HepG2 cells assessed as inhibition of cell growth incubated for 24 hrs by MTT assay; assay type: functional, cell-based; details: HepG2, 24 h
[30] = Cytotoxicity against human MCF-10A cells assessed as inhibition of cell proliferation incubated for 24 hrs by CCK-8 assay; assay type: toxicity, cell-based
[31] = test system: MGC-803; assay: Anticancer activity against human MGC-803 cells incubated for 72 hrs by MTT assay; assay type: functional, cell-based; details: MGC-803, 72 h
[32] = test system: SCC-4; assay: Antiproliferative activity against human SCC-4 cells assessed as inhibition of cell proliferation incubated for 24 hrs by MTT assay; assay type: functional, cell-based; details: SCC-4, 24 h
[33] = test system: HCT-8; assay: Antiproliferative activity against human HCT-8 cells assessed as inhibition of cell proliferation incubated for 24 hrs by CCK-8 assay; assay type: functional, cell-based; details: HCT-8, 24 h
[34] = test system: MG-63; assay: Antiproliferative activity against human MG-63 cells incubated for 24 hrs by MTT assay; assay type: functional, cell-based; details: MG-63, 24 h
[35] = Cytotoxicity against human MCF-10A assessed as inhibition of cell growth incubated for 24 hrs in presence of foetal bovine serum by MTT assay; assay type: toxicity, cell-based; details: MCF-10A cells
[36] = Antiproliferative activity against human BGC cells assessed as inhibition of cell proliferation incubated for 20 hrs by MTT assay; assay type: functional, cell-based
[37] = Cytotoxicity against human skin fibroblast cells assessed as reduction in cell viability incubated for 72 hrs by MTT assay; assay type: toxicity, cell-based
[38] = test system: HepG2; assay: Antiproliferative activity against human HepG2 cells assessed as inhibition of cell proliferation incubated for 24 hrs by MTT assay; assay type: functional, cell-based; details: HepG2, 24 h
[39] = test system: A549; assay: Anticancer activity against human A549 cells assessed as inhibition of cell growth incubated for 72 hrs by MTT assay; assay type: functional, cell-based; details: A549, 72 h
[40] = test system: MCF7; assay: Antiproliferative activity against human MCF7 cells assessed as inhibition of cell proliferation incubated for 20 hrs by MTT assay; assay type: functional, cell-based; details: MCF7, 20 h
[41] = test system: MCF7; assay: Antiproliferative activity against human MCF7 cells assessed as inhibition of cell growth incubated for 24 hrs in presence of foetal bovine serum by MTT assay; assay type: functional, cell-based; details: MCF7, 24 h
[42] = Cytotoxicity against African green monkey VERO cells assessed as inhibition of cell growth incubated for 24 hrs by MTT assay; assay type: toxicity, cell-based, Chlorocebus sabaeus
[43] = test system: MDA-MB-231; assay: Antiproliferative activity against human MDA-MB-231 cells assessed as inhibition of cell growth incubated for 24 hrs in presence of foetal bovine serum by MTT assay; assay type: functional, cell-based; details: MDA-MB-231, 24 h
[44] = Antitubulin activity against bovine brain tubulin polymerization preincubated with compound followed by GTP addition and measured after 20 mins by turbidimetry-based spectrophotometric method; set-up: species or system Bos taurus
[45] = Cytotoxicity against human MCF-10A incubated for 24 hrs by MTT assay; assay type: toxicity, cell-based; details: MCF-10A cells
[46] = test system: MCF7; assay: Antiproliferative activity against human MCF7 cells assessed as inhibition of cell proliferation incubated for 24 hrs by CCK-8 assay; assay type: functional, cell-based; details: MCF7, 24 h

CC(C)=CC[C@@H](O)C1=CC(=O)c2c(O)ccc(O)c2C1=O [SHIKONIN] showed an IC50 at 24 h [1] of 83.8 µM, an IC50 at 24 h [2] of 3.26 µM and an IC50 at 24 h [3] of 10.5 µM. The IC50 [4] was 3.72 µM, the IC50 [5] was 65.3 µM and the IC50 [6] was 1.29 µM. It also gave an IC50 [7] of 2.51 µM, an IC50 [8] of 7.62 µM and an IC50 [9] of 6.5 µM. It also gave an IC50 [10] of 10.4 µM, an IC50 [11] of 5.74 µM and an IC50 [12] of 3.11 µM. For the same compound, the IC50 [13] was 2.82 µM, the IC50 at 24 h [14] was 10.5 µM and the IC50 [15] was 11.1 µM. For the same compound, the IC50 [16] was 11.7 µM, the IC50 [17] was 4.99 µM and the IC50 [18] was 17.9 µM. The IC50 [19] was 3.28 µM, the IC50 [20] was 0.58 µM and the IC50 [21] was 3.13 µM. It also gave an IC50 [22] of 0.76 µM, an IC50 [23] of 5.06 µM and an IC50 [24] of 1.71 µM. It also gave an IC50 [25] of 4.8 µM, an IC50 [26] of 3.61 µM and an IC50 [27] of 3.75 µM. The IC50 [28] was 2.11 µM, the IC50 [29] was 0.42 µM and the IC50 at 24 h [30] was 20.9 µM. The IC50 [31] was 1.28 µM, the IC50 [32] was 10.1 µM and the IC50 [33] was 9.2 µM. It also gave an IC50 [34] of 7.36 µM, an IC50 at 24 h [35] of 23.5 µM and an IC50 [36] of 2.2 µM. For the same compound, the IC50 at 72 h [37] was 1.2 µM, the IC50 [38] was 9.36 µM and the IC50 [39] was 1.8 µM. For the same compound, the IC50 [40] was 1.03 µM, the IC50 [41] was 4.57 µM and the IC50 at 24 h [42] was 6.76 µM. For the same compound, the IC50 [43] was 2.88 µM, the IC50 [44] was 15.2 µM and the IC50 at 24 h [45] was 93.4 µM. For the same compound, the IC50 [46] was 9.32 µM.
